One assay deals with Microbes. Particulars: cited from earlier work.
Another assay relates to P. aeruginosa. Particulars: cited from earlier work.
Assay [1] deals with Pseudomonas aeruginosa (PAO1) biofilm. As to the kind of experiment: Ex vivo biofilm porcine skin explant model, bacterial load after treatment with hydrogel. The class given is cell-based. The conditions noted are these: 3 day cultured PA01 explants, treated with 1 ml solution, cell count Day 4.

Take `O=S1(=O)CCN(CN2CCS(=O)(=O)NC2)CN1` [Taurolidine, bis(1,1-dioxoperhydro-1,2,4-thiadiazinyl-4)-methane]: the “destruction time in vitro” value in the assay with Microbes is 30 min.

`NC[C@H]1O[C@H](O[C@H]2[C@H](O)[C@@H](O[C@H]3O[C@H](CO)[C@@H](O)[C@H](N)[C@H]3O)[C@H](N)C[C@@H]2N)[C@H](N)C[C@@H]1O` [tobramycin]: the “reduction of biofilm cell counts” value in the assay on P. aeruginosa (P. aeruginosa biofilm, tobramycin levels far in excess of the MIC) was “approximately 2 logs”. Further, in the assay with P. aeruginosa (P. aeruginosa planktonic cells, same dosage), the “decrease in planktonic cells” value was > 8 log. For the compound gentamicin, the “PA01 AVG (average CFU/ml of sonicated explant bacterial suspension)” value in assay [1] is 3.45E+07 CFU/ml.

These data come from US12302902B2, “Antimicrobial compositions, including antimicrobial hydrogels, effective against mature biofilms” (Cormedix Inc., priority 2017, dated 2025).
